ChEMBL document CHEMBL3286145, “Evaluation of the antiprion activity of 6-aminophenanthridines and related heterocycles” (Eur J Med Chem, 2014)

Test: Ex vivo antiprion activity against sheep 127S scrapie prion protein infected in mouse MovS6 cells assessed as PK digestion resistant-PrPSc accumulation after 6 days by immunoblot analysis
Assay type: cell-based
Details: Ovis aries, MovS6, 144 h

Row | Compound | IC50
1 | COc1cc(OC)c2nc(N)c3ccccc3c2c1 | < 1.8 µM
2 | Nc1nc2ccccc2c2ccc([N+](=O)[O-])cc12 | 20 µM
3 | Nc1cccc2c1c(N)nc1ccccc12 | 30 µM
4 | Nc1nc2ccccc2c2cccc(F)c12 | > 20 µM
5 | Nc1nc2ccccc2c2ccccc12 | < 5 µM
6 | Nc1nc2ccccc2c2c1CCCC2 | < 5 µM
7 | [N-]=[N+]=Nc1ccc2c(c1)c(N)nc1ccccc12 | 10 µM
8 | Nc1nc2ccccc2c2c1CC=CC2 | 1.8 µM
9 | Nc1nc2ccccc2c2ccc(F)cc12 | 15 µM
10 | Nc1nc2ccccc2c2cc([N+](=O)[O-])ccc12 | < 5 µM
11 | Nc1nc2ccccc2c2ccc(C(F)(F)F)cc12 | 10 µM
12 | Nc1nc2ccccc2c2cc(F)ccc12 | 5 µM
